In PubChem BioAssay (NCI):
“And” between values parts separate entries of the source, which are not always exact repeats. Equal entries are not always repeated.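 96-well plates; 48 h exposure; 5 concentrations. Endpoints by linear interpolation between flanking doses. Not reached: highest tested concentration assigned. GI50 marks 50% less growth. TGI marks complete inhibition of growth.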

Assays:
Assay in all cases: NCI-60 cell line screen, 48 h
A498 renal = tested on: A498 renal
HCT-15 colon = tested on: HCT-15 colon
IGROV1 ovarian = tested on: IGROV1 ovarian
OVCAR-3 ovarian = tested on: OVCAR-3 ovarian
OVCAR-8 ovarian = tested on: OVCAR-8 ovarian
SF-268 CNS = tested on: SF-268 CNS
SK-MEL-28 melanoma = tested on: SK-MEL-28 melanoma
SK-OV-3 ovarian = tested on: SK-OV-3 ovarian
SN12C renal = tested on: SN12C renal
SR leukemia = tested on: SR leukemia

Compound | GI50 (A498 renal) [µM] | TGI (A498 renal) [µM] | GI50 (HCT-15 colon) [µM] | TGI (HCT-15 colon) [µM] | GI50 (IGROV1 ovarian) [µM] | TGI (IGROV1 ovarian) [µM] | GI50 (OVCAR-3 ovarian) [µM] | TGI (OVCAR-3 ovarian) [µM] | GI50 (OVCAR-8 ovarian) [µM] | TGI (OVCAR-8 ovarian) [µM] | GI50 (SF-268 CNS) [µM] | TGI (SF-268 CNS) [µM] | GI50 (SK-MEL-28 melanoma) [µM] | TGI (SK-MEL-28 melanoma) [µM] | GI50 (SK-OV-3 ovarian) | TGI (SK-OV-3 ovarian) | GI50 (SN12C renal) [µM] | TGI (SN12C renal) [µM] | GI50 (SR leukemia) [µM] | TGI (SR leukemia) [µM]
CCN(CC)c1ccc(/C=C/C2=[N+](C)c3ccccc3C2(C)C)cc1 | 1.65 | 12.2 | 3.34 | > 49.4 | 0.709 | > 85.6 | 0.281 | 13.2 | 0.442 | > 100 | 0.627 | 33.2 | 0.61 | 9.48 | 0.275 µM | 2.79 µM | 0.342 | 13.8 | > 20.9 | > 100
N/C(=N\N=C=C1C(=O)Nc2ccc(F)cc21)NO | – | > 100 | – | > 100 | – | > 100 | – | > 100 | – | > 100 | – | > 100 | – | > 100 | – | > 100 µM | – | > 100 | – | > 100
NCCCNCCCNc1nc2ccccc2c2[nH]c3ccccc3c12 | 0.995 | 2.44 | 0.307 | 4.95 | 0.0837 | 1.03 | 0.449 | 2.43 | 0.0346 | 4.3 | 0.0264 | 1.72 | 0.464 | 2.1 | 0.743 µM and 0.322 µM | 4.14 µM and 3.42 µM | 0.0224 | 1.28 | 0.0059 | 1.17
S=c1nc(/C=C/c2ccc(Cl)c(Cl)c2)[nH][nH]1 | – | > 100 | – | > 100 | – | > 100 | – | > 100 | – | > 100 | – | > 100 | – | > 100 | – | > 100 µM | – | > 100 | 22.7 | > 100
C=C1CCC2C3(C)COC(c4cccc(Cl)c4)OC3CCC2(C)C1/C=C/C1=CCOC1=O (stereo unspecified) | 2.54 | > 100 | 6.75 | > 100 | > 100 | > 100 | 7.95 | > 100 | 6.73 | > 100 | > 100 | > 100 | > 100 | > 100 | > 100 µM | > 100 µM | > 100 | > 100 | 4.11 | > 100
COc1cc2c(c(Br)c1N)-c1cc(Br)c(N)cc1C2=O | > 61.7 | > 100 | > 100 | > 100 | 0.205 | > 100 | > 100 | > 100 | 4.9 | > 100 | 7.37 | > 100 | > 100 | > 100 | 11.3 µM | > 73.5 µM | 6.33 | > 100 | 0.0592 | > 100
O=C(/C=C/c1cccnc1)/C=C/c1cccnc1 | 1.94 | 4.66 | 0.523 | 1.98 | 0.463 | 1.82 | 1.07 | 2.33 | 3.56 | 12.8 | 2.73 | 7.77 | 1.95 | 4.02 | 2.74 µM | 6.78 µM | 2.99 | 12.7 | 0.196 | > 100
Cn1c(=O)c2c(nc3n2C(CCl)CO3)n(C)c1=O (stereo unspecified) | – | > 100 | – | > 100 | – | > 100 | – | > 100 | – | > 100 | – | > 100 | – | > 100 | – | > 100 µM | – | > 100 | – | > 100
